# Experimental data from EP2508526A1, “Spiroalkene carboxamide derivatives and their use as chemokine receptor modulators” (Ares Trading SA, priority 2011, dated 2012).
# pKi: −log10 of the molar value. Structures can show the parent of a compound that is named as a salt.
# Target: T1, hCCR2b (Homo sapiens, UniProt P41597)
# T1 sequence (P41597 1-360 isoform P41597-2): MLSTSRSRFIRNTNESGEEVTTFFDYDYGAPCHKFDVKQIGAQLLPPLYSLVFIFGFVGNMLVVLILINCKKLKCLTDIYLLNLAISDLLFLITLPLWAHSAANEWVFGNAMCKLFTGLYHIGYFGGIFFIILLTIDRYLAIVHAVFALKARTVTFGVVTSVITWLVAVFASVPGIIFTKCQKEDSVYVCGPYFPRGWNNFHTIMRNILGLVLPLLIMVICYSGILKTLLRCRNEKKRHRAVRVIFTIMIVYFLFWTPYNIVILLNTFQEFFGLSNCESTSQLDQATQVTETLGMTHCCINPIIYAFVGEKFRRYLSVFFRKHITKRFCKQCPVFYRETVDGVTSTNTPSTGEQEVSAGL
# Assay: CCR2 binding assay ([125I]MCP-1, SPA, CHO cell membranes)
# Parameters: expressed in transfected cells; host or cells: CHO cells (membrane preparation)
# Details: membranes from CHO cells expressing hCCR2b, 50 pM [125I]MCP-1; read-out: Binding hCCR2 (Ki)
# Procedure: Membranes were prepared from CHO cells expressing mCCR2b or hCCR2b for use in ligand binding studies. Cells were suspended in 50mM Tris-HCL, pH 7.4, 2 mM EDTA, 250 mM Sucrose and 1x Complete EDTA-free protease inhibitor cocktail (Roche) (Buffer A), and disrupted at 4°C by N2 decompression using a cell disruption bomb (Parr Instrument). Following centrifugation at 200 RCF for 10 min at 4°C, the supernatant was suspended in buffer A and centrifuged again at 19000 RPM (RCSC rotor SS34 code 05 Sorvall Instruments DUPONT) for 90 min at 4°C. The pellet was then suspended in 10 mM HEPES, pH 7.4, 1 mM EDTA, 250 mM Sucrose, and 1x Complete EDTA-free protease inhibitor cocktail (Buffer B) and homogenized using a potter. Membranes were flash frozen in liquid N2 and stored at -80°C. [125I] Monocyte Chemoattractant Protein -1 (MCP-1) (25µCi; Perkin Elmer) was added to test compounds in DMSO (1% final). Membranes and WGA SPA beads (GE Healthcare) were added to give a final volume of 100 µl in 96-well plates with assay concentrations of 50 pM or 100 pM [125I]Monocyte Chemoattractant Protein -1 (respectively for hCCR2b or mCCR2b), 50 mM HEPES, pH 7.4, 5 mM MgCl2, 1 mM CaCl2, 0.1% BSA, 1-5 µg/well of membranes and 100 µg/well of WGA SPA beads. Binding was performed for 90 min at RT with strong agitation of speed 5 (Heidolph Titramax 100 SCITEC) and bound radioactivity was measured on a PerkinElmer 1450 MicroBeta counter. Specific binding was calculated by subtracting remaining radioactivity in the presence of 1000-fold excess of unlabeled compound. Binding data were analyzed using the Genedata Screener® software.
row,Structure (SMILES),pKi
1,"COC1COCCC1N1CCC2(CC1)OC(=O)C(C)=C2C(=O)N1CCc2ccc(C(F)(F)F)cc2C1 (single isomer, unassigned; (+)) [Compound 41, (+)-1,5-anhydro-3,4-dideoxy-2-O-methyl-3-(3-methyl-2-oxo-4-{[7-(trifluoromethyl)-3,4-dihydroisoquinolin-2(1H)-yl]carbonyl}-1-oxa-8-azaspiro[4.5]dec-3-en-8-yl)-pentitol]",> 7.30
2,"COC1COCCC1N1CCC2(CC1)OC(=O)C(C)=C2C(=O)N1CCc2ncc(C(F)(F)F)cc2C1 (single isomer, unassigned; (+)) [Compound 48, (+)-1,5-anhydro-3,4-dideoxy-2-O-methyl-3-(3-methyl-2-oxo-4-{[3-(trifluoromethyl)-7,8-dihydro-1,6-naphthyridin-6(5H)-yl]carbonyl}-1-oxa-8-azaspiro[4.5]dec-3-en-8-yl)-pentitol]",6.30 to 7.00
3,"COC1COCCC1N1CCC2(CC1)OC(=O)C(C)=C2C(=O)N1CCc2ccc(C(F)(F)F)cc2C1 (single isomer, unassigned; (-)) [Compound 40, (-)-1,5-anhydro-2,3-dideoxy-4-O-methyl-3-(3-methyl-2-oxo-4-{[7-(trifluoromethyl)-3,4-dihydroisoquinolin-2(1H)-yl]carbonyl}-1-oxa-8-azaspiro[4.5]dec-3-en-8-yl) -pentitol]",> 7.30
4,"COC(CN1CCC2(CC1)OC(=O)C(C)=C2C(=O)N1CCN(c2cccc(C(F)(F)F)c2)CC1)c1ccccc1 (stereo not shown) [Compound 7, 8-(2-methoxy-2-phenylethyl)-3-methyl-4-({4-[3-(trifluoromethyl)phenyl]piperazin-1-yl}carbonyl)-1-oxa-8-azaspiro[4.5]dec-3-en-2-one]",7.00 to 7.30
5,"COc1cccc(CCN2CCC3(CC2)OC(=O)C(C)=C3C(=O)N2CCN(c3cccc(C(F)(F)F)c3)CC2)c1 [Compound 8, 8-[2-(3-methoxyphenyl)ethyl]-3-methyl-4-({4-[3-(trifluoromethyl)pheny)]piperazin-1-yl}carbonyl)-1-oxa-8-azaspiro[4.5]dec-3-en-2-one, dihydrochloride salt]",> 7.30

# The next lines start with the values.
row,pKi,Structure (SMILES)
1,6.30 to 7.00,"CO[C@@H]1COCC[C@@H]1N1CCC2(CC1)OC(=O)C(C)=C2C(=O)N1CCc2ncc(C(F)(F)F)cc2C1 (single isomer, unassigned) [Compound 44, (-)-1,5-anhydro-2,3-dideoxy-4-O-methyl-3-(3-methyl-2-oxo-4-{[3-(trifluoromethyl)-7,8-dihydro-1,6-naphthyridin-6(5H)-yl]carbonyl}-1-oxa-8-azaspiro[4.5]dec-3-en-8-yl)-pentitol]"
2,6.30 to 7.00,"CC1=C(C(=O)N2CCN(c3cccc(C(F)(F)F)c3)CC2)C2(CCN(CC(=O)O)CC2)OC1=O [Compound 9, [3-methyl-2-oxo-4-({4-[3-(trifluoromethyl)phenyl]piperazin-1-yl}carbonyl)-1-oxa-8-azaspiro[4.5]dec-3-en-8-yl]acetic acid]"
3,6.30 to 7.00,"CC1=C(C(=O)N2CCN(c3cccc(C(F)(F)F)c3)CC2)C2(CCN(CCC(=O)O)CC2)OC1=O [Compound 10, 3-[3-methyl-2-oxo-4-({4-[3-(trifluoromethyl)phenyl]piperazin-1-yl}carbonyl)-1-oxa-8-azaspiro[4.5]dec-3-en-8-yl]propanoic acid]"
4,6.30 to 7.00,"CC1=C(C(=O)N2CCN(c3cccc(C(F)(F)F)c3)CC2)C2(CCN(CCCC(=O)O)CC2)OC1=O [Compound 11, 4-[3-methyl-2-oxo-4-({4-[3-(trifluoromethyl)phenyl]piperazin-1-yl}carbonyl)-1-oxa-8-azaspiro[4.5]dec-3-en-8-yl]butanoic acid]"
5,7.00 to 7.30,"CC1=C(C(=O)N2CCN(c3cccc(C(F)(F)F)c3)CC2)C2(CCN(CCc3ccncc3)CC2)OC1=O [Compound 12, 3-methyl-8-(2-pyridin-4-ylethyl)-4-({4-[3-(trifluoromethyl)phenyl]piperazin-1-yl}carbonyl)-1-oxa-8-azaspiro[4.5]dec-3-en-2-one]"
